The compounds below were run on P. falciparum 3D7 growth, pLDH absorbance (assay: blood-stage malaria parasite growth potency – strain 3D7, dose response (AID 2305)).
With `Cc1ccc2ncc(Cl)c(CCN3CCC(NCc4ccc5c(n4)NC(=O)CS5)CC3)c2n1` the IC50 was 1.1 µM.
`O=C(NCc1ccc(F)cc1)Nc1ccc(-c2ccc(-c3nc4ccccc4[nH]3)cc2)cc1` gave an IC50 of 0.09 µM.
For `CC(C)CNCc1cccc(-c2ccc(CN(C(=O)NCCc3ccccc3)C3CCN(Cc4ccccc4)CC3)cc2)c1`, the IC50 was 0.76 µM.
With `COc1ccc2ncc(Cl)c([C@H](O)CN3CCC(NCc4cc5c(cn4)OCCO5)CC3)c2c1` the IC50 was 0.12 µM.
In the case of `CC(C)(CNC(=O)C1CCN(Cc2ccc(Cl)cc2)CC1)c1nc(-c2ccc(Cl)c(O)c2)c(-c2ccncc2)[nH]1`, the IC50 is reported as 0.62 µM.
`Oc1ccc2ccccc2c1C=NNc1nc(Nc2ccccc2)nc(Nc2ccccc2)n1` was tested, and the IC50 was 0.67 µM.
In the case of `COCCOc1ccc(Nc2nccc(-c3c(-c4cccc(NC(=O)c5c(F)cccc5F)c4)nn4ccccc34)n2)cc1Cl`, the IC50 is reported as 0.36 µM.
With `Cc1ccc(/C=C/C(=O)NC2CCC(N3CCC(c4ccccc4C)CC3)CC2)cc1C` (centres undefined) the IC50 was 0.81 µM.
With `c1ccc(CN2CCC(NCc3ccc(-c4cccc(CNC5CCCC5)c4)cc3)CC2)cc1` the IC50 was 0.34 µM.
`Cc1cccc2[nH]c(-c3ccc(-c4ccc(NC(=O)Nc5cccc(C#N)c5)cc4)s3)nc12` showed an IC50 of 0.12 µM.
In the case of `O=C(Nc1ccc(Cl)cc1)N[C@H]1CCN(CCCCCNC(=O)[C@@H]2C[C@H]2c2ccc(Cl)c(Cl)c2)C1`, the IC50 is reported as 0.87 µM.
Work on `c1ccc(CN2CCC(NCc3ccccc3-c3cccc(CNCc4ccc5c(c4)OCO5)c3)CC2)cc1` yielded an IC50 of 0.57 µM.
With `CCOC(=O)CCCCCNC[C@H](O)c1ccccc1` the IC50 was 0.33 µM.
Work on `COC(=O)c1cccc(NC(=O)NC2CCN(c3ccnc(Nc4ccc(F)cc4)n3)C2)c1` (centres undefined) yielded an IC50 of 0.5 µM.
Work on `Nc1nc(N)c2c(Oc3cccc(Cl)c3)cccc2n1` yielded an IC50 of 0.47 µM.
`CCOc1cc(C(=O)Nc2ccccc2N2CCN(S(C)(=O)=O)CC2)cc(OCC)c1OCC` was tested, and the IC50 was 0.65 µM.
`Cc1[nH]cc(Br)c(=O)c1-c1ccc(Oc2ccccc2)cc1` gave an IC50 of 0.68 µM.
`CCC(N)(C#Cc1ccc(-c2c(C)[nH]c(C)c(Br)c2=O)cc1)CC` gave an IC50 of 0.04 µM.
`CNC(=O)c1cnc(Nc2ccc(N3CCOCC3)cc2)nc1Nc1cccc(O)c1` gave an IC50 of 0.81 µM.
Work on `O=C(/C=C/c1ccc(Cl)c(Cl)c1)NCCCCCN1CC[C@H](NC(=O)c2ccc3c(c2)OCO3)C1` yielded an IC50 of 0.94 µM.
`Oc1ccc(CN2CCN(CCOC(c3ccccc3)c3ccc(Cl)cc3)CC2)cc1Cl` (centres undefined) gave an IC50 of 0.86 µM.
For `C[C@H](Nc1nc(C(Oc2ccccc2)c2ccccc2)nc2[nH]ncc12)c1ccccc1` (some centres undefined), the IC50 was 0.48 µM.
For `Fc1cccc(C=NNc2ccnc3cc(Cl)ccc23)c1`, the IC50 was 0.53 µM.
With `COc1c(OC)c(OC)c2ccccc2c1CNCCCCCCNCc1c(OC)c(OC)c(OC)c2ccccc12` the IC50 was 0.76 µM.
In the case of `CN(C(=O)C1(c2ccc(Cl)cc2)CC1)C1CCN(CCCCCNC(=O)/C=C/c2ccc(Cl)c(Cl)c2)CC1`, the IC50 is reported as 0.77 µM.
`CC(CN(C)C)C(=O)Nc1ccc(-c2ccc(-c3nc4ccccc4[nH]3)s2)cc1` (centres undefined) showed an IC50 of 0.72 µM.
`COc1cc(C2C(Oc3ccccc3)C(=O)N2Cc2ccc(F)cc2)cc(OC)c1OC` (centres undefined) gave an IC50 of 0.96 µM.
Compound `CCc1c(CCNCC/C=C/CCNCCc2ccc(OC)c(OC)c2CC)ccc(OC)c1OC` has an IC50 of 0.77 µM.
`COc1ccc(CN(C)CC(O)COc2ccc(NC(=O)c3cccc4c(=O)c5cccc(OC)c5[nH]c34)cc2)cc1OC` (centres undefined) gave an IC50 of 0.78 µM.
`Cc1cc(NC2CCCC2)nc(Nc2ccccc2)n1` showed an IC50 of 0.99 µM.
Work on `CC(=O)Nc1cccc(CNCc2ccc(-c3cnc(N4CCCC(C)(C)C4)nc3)cc2)c1` yielded an IC50 of 0.82 µM.
In the case of `O=C(Nc1ccc(C(=O)OC[C@@H]2CCCN3CCCC[C@H]23)cc1)c1ccc([N+](=O)[O-])cc1`, the IC50 is reported as 0.72 µM.
Work on `Fc1ccc(C=NNc2ccnc3ccccc23)cc1` yielded an IC50 of 0.71 µM.
Compound `CC(=O)Nc1ccc(OCCCCN(Cc2ccccc2C(F)(F)F)c2ccc(C#N)c(C(F)(F)F)c2)c(Cl)c1` has an IC50 of 0.98 µM.
`COc1cc2c(cc1OC)CC(NCCCCCCNCCc1ccc(Cl)cc1)CC2` (centres undefined) gave an IC50 of 0.74 µM.
`O=[N+]([O-])c1ccc(Nc2nc(NCc3ccccc3)nc(NN=Cc3ccccc3[N+](=O)[O-])n2)cc1` was tested, and the IC50 was 0.16 µM.
With `COc1ccc2c(c1)OC(C)(C)CC2=NOS(=O)(=O)c1ccc(C)cc1` the IC50 was 0.21 µM.
For `Cn1nc(C(=O)N2CCC(c3[nH]ncc3Cc3ccccc3)CC2)c2ccccc2c1=O`, the IC50 was 0.3 µM.
Compound `CC(C)CCNC(=O)C1Cc2c([nH]c3cc(Cl)ccc23)C2(CCN(CCc3ccccc3)CC2)N1` (centres undefined) has an IC50 of 0.69 µM.
With `Cc1cccc2[nH]c(-c3ccc(-c4ccc(CN5CCC(CO)CC5)cc4)s3)nc12` the IC50 was 0.81 µM.
`CCCCCn1c(Sc2ccc(C#N)c([N+](=O)[O-])c2)nnc1-c1ccc(OC)cc1` showed an IC50 of 1.14 µM.
Compound `CCCc1cc(NC2CCN(C)CC2)nc(Nc2ccc(C)cc2)n1` has an IC50 of 0.9 µM.
`c1ccc2oc(-c3cc4ccncc4cc3OC3CCNCC3)cc2c1` showed an IC50 of 1.47 µM.
For `COc1ccc(CCNCCCCCCNCCc2ccc(Cl)c3ccccc23)cc1OC`, the IC50 was 0.58 µM.
For `NC1CCCN(Cc2cccc(-c3ccc(-c4nc5ccccc5[nH]4)s3)c2)C1` (centres undefined), the IC50 was 0.58 µM.
`CCCCN1CCN(c2cc(NS(=O)(=O)c3ccc(C(=O)Nc4ccc(C(F)(F)F)cc4)cc3)ccc2OC)CC1` showed an IC50 of 0.66 µM.
Work on `CC(C)c1cn2c3c(cc(C(=O)N[C@@H](Cc4ccccc4)[C@H](O)CNC4CCOCC4)cc13)N(C)S(=O)(=O)CC2` yielded an IC50 of 0.05 µM.
In the case of `O=C(Nc1ccc(F)cc1)NC1CCN(CCCCCNC(=O)[C@@H]2C[C@H]2c2ccc(Cl)c(Cl)c2)CC1`, the IC50 is reported as 0.99 µM.
In the case of `NC(=O)c1cnc2cc(-c3ccncc3)cc(Nc3ccc(NC(=O)C4CCCCC4)cc3)c2c1`, the IC50 is reported as 0.23 µM.
